Laboratory results taken from patent US20060167229A1, “Biologically active peptide conjugates” (priority 2002, published 2006).
Marks after values point to notes of the source that are not given here. Ends that are not written are not given here.

Assays:
Type in all cases: in vivo, BALB/c mice
IL-2 = assay: T lymphocyte IL-2 secretion test (HT-2 cell bioassay of ConA supernatant); settings: for activity of T lymphocyte in secreting IL-2, X ± SD (IU): healthy mice; for effect on the secretion of interleukin-2 (IL-2) by T lymphocytes (summary): statistically significant difference from saline in any of the dosage groups 0.5-500 μg/kg/day
Experimental: (§1) Spleen cells of density 1×10^6/ml were placed onto a 96 wells cell culture plate, 100 μL/well, three parallel wells each of the assay sample and control sample per mouse. To the assay wells, 100 μl/well ConA of 100 μg/ml in RPMI-1640 was added, and 1001 μl/well plain RPMI-1640 was used for the controls. The cells were incubated for 66 hrs at 37° C., 5% CO2. The cells were then pelleted by centrifugation at 150 g for 10 minutes.
HT-2 cells at log phase were collected by centrifugation at 150 g for 10 minutes, and washed three times with cold Hank's solution by re-suspension and centrifugation. The collected HT-2 cells were re-suspended in RPMI-1640 and incubated at 37° C., 5% CO2 for 30 minutes. The cells were further washed twice with RPMI-1640 by re-suspension and centrifugation, and re-suspended to final concentration of 2×10^5/ml with RPMI-1640.
rIL-2 was diluted to the following concentration with RPMI-1640: 500 IU/ml, 250 IU/ml, 125 IU/ml, 62.5 IU/ml, 31.25 IU/ml, and […].
The plate was incubated at 37° C., 5% CO2 for 68 hours, then centrifuged at 150 g for 15 minutes and the supernatant removed. 100 μl 0.5 mg/ml MTT in RPMI-1640 without phenolsulfonphthalein was added into each well. After shaking for 3-4 minutes to re-suspend the cells, continue to incubate for another 4 hours. Samples were then centrifuged at 150 g for 15 minutes and the supernatant was removed. To each well, 120 μl 40 mM HCl-2-propanol was added, mixed for 3-4 minutes and OD analyzed at 570 nm, referenced at 630 nm with an ELISA plate reader.
The average OD of the three parallel wells of each dilution was taken and plotted against concentration on a semi-log paper, concentration on the X-axis. The concentration at 50% OD saturation was obtained for both the testing supernatant and rIL-2.

NK cell = NK cell activity in mice with ascitic fluid type liver cancer H22; settings: saline 24.0 ± 8.2
Experimental: (§2) Healthy BALB/c mice were randomised into peptide group, rmIFN-γ group, rhIL-2 group, and saline group, 15 mice per group, and prepared into H22 carrying mice model as described in section Method 3. After implantation of the cancer cells, the test substances were administered for 15 days, the mice were killed by cervical dislocation. The spleen was isolated aseptically and manually dispersed in cold D-Hank's solution using an injection needle. The dispersed cell suspension was further sieved through a 100-gauge 150 μm diameter stainless steel sieve. After centrifugation at 200 g for 10 minutes, the supernatant was discarded. The cell pellet was re-suspended in 10 volume of Tris-NH4Cl buffer and then kept standing still for 10 minutes at room temperature. The suspended cells were collected by centrifugation at 150 g for 10 minutes. The cells were washed 2-4 times with cold D-Hank's solution by re-suspending and collecting by centrifugation with condition as described above. The washed cells were then diluted to the desired cell densities by RPMI-1640 culture medium, containing 10% fetal bovine serum.
Mice spleen cells were prepared to 4×10^6/ml as described in section 4.1 above. Target cells YAC-1 were brought to log phase and adjusted to 1×10^5/ml. Using a 96 wells cell culture plate, 100 μl mouse spleen cells and 100 μl culture medium were added to the control well containing only the spleen cells; 100 μl target cells and 100 μl culture medium were added to the control well containing only target cells; 100 μl mouse spleen cells and 100 μl target cells were added to the NK activity assay well. Three parallel sets of the above were prepared per mouse. After that, the 96 wells cell culture plates were incubated for 4 hrs at 37° C., 5% CO2.
Samples were centrifuged at 150 g for 10 minutes to collect the cells. The supernatant was discarded and 50 μl/well MTT of 1 mg/ml was added. The reaction-mixture was then shaken for 2 minutes, and incubated at 37° C., 5% CO2 for 4 hours. The supernatant was discarded after centrifugation at 150 g for 10 minutes. 120 μl 40 mM HCl-2-propanol was added and shaken for 3 minutes. An ELISA reader was used to obtain OD570 nm of each well referenced at 630 nm.
The NK cell activity index of each mouse was obtained by first deriving the average OD of the three parallel wells of each combination, then applying this average OD to the following formula: NK cell activity index=[1−(average OD of spleen and target cell well−average OD of spleen cell only well)÷(average OD of target cell only well)]×100% 5. The Effect of Peptides on the Survival of DBA/2 Mice with Transplanted L1210 Leukemia

T lymphocyte = T lymphocyte transformation in mice with ascitic fluid type liver cancer H22; settings: saline 1.25 ± 0.07
Experimental: as §2
as §1, with “μl/well,” for “μL/well,”, “100” for “1001”
50 μl/well MTT of 1 mg/ml in RPMI-1640 was added to the cell pellet and the cells re-suspended by shaking for 2 minutes. The incubation was continued for 4 hours. The supernatant was discarded after centrifugation at 150 g for 10 minutes. 120 μl 40 mM HCl-2-propanol was added to the cell pellet and shaken for 3 minutes. Use an ELISA reader to obtain OD570 nm of each well referenced at 630 nm.
Each mouse formed three assay wells and three control wells. The Stimulation Index (SI) of each mouse was obtained by first deriving the average OD of the three parallel wells, then dividing the value of the assay wells by the control wells.

[1] = peptide 50 μg/kg/day i.p. 15 days (IFN-γ, IL-2 3×10^5 IU/kg/day), saline 39 ± 10
[2] = peptide 5 μg/kg/day i.p. 15 days (IFN-γ, IL-2 3×10^5 IU/kg/day), saline 37 ± 9
[3] = peptide 0.51 g/kg/day (so in the source) i.p. 15 days (IFN-γ, IL-2 3×10^5 IU/kg/day), saline 38 ± 13
[4] = peptide 500 μg/kg/day i.p. 15 days (IFN-γ, IL-2 3×10^5 IU/kg/day), saline 39 ± 10

FNFVPP [CMS003] was tested, and the “activity of T lymphocyte in secreting IL-2, X ± SD (IU)” value (“activity of T lymphocyte … X ± SD (IU)” for short) (IL-2; [1]) was 86 ± 9*^ IU, the “effect on the secretion of interleukin-2 (IL-2) by T lymphocytes (summary)” value (shortened to “effect on the secretion”) (IL-2) was “enhance” and the “NK activity index (%)” value (NK cell; dose 500 μg/kg) was 37.9 ± 14.5*^^$ %.

In the case of LGMQACGIHETTY [CMS012], the “activity of T lymphocyte … X ± SD (IU)” value (IL-2; [2]) is reported as 65 ± 16 IU, the “activity of T lymphocyte … X ± SD (IU)” value (IL-2; [3]) is reported as 59 ± 13 IU and the “effect on the secretion” value (IL-2) is reported as “enhance”.

LRVAPQQHPTL [CMS009] was tested, and the “activity of T lymphocyte … X ± SD (IU)” value (IL-2; [4]) was 114 ± 13*^@^ IU and the “effect on the secretion” value (IL-2) was “enhance”.

With PTTKTYFPHF [CMS001] the “activity of T lymphocyte … X ± SD (IU)” value (IL-2; [1]) was 60 ± 10 IU and the “effect on the secretion” value (IL-2) was “enhance”.

In the case of “Phe Gln Gln Gln (FQQQ; printed: Phe Gln Gln Gln) [CMS032]”, the “NK activity index (%)” value (NK cell; dose 5 μg/kg) is reported as 52.6 ± 12.5*^^$& % and the “NK activity index (%)” value (NK cell; dose 50 μg/kg) is reported as 41.0 ± 18.7*^^$& %.

For “Phe Val Asn Asp (FVND; listed as Sus scrofa) [CMS035]”, the Stimulation index (T lymphocyte; dose 0.5 μg/kg) was 1.40 ± 0.13*^$ and the Stimulation index (T lymphocyte; dose 5 μg/kg) was 1.46 ± 0.16*^$.

With “Pro Gln Asn Phe (PQNF; printed: Pro Gln Asn Phe) [CMS034]” the “activity of T lymphocyte … X ± SD (IU)” value (IL-2; [3]) was 85 ± 10*^ IU, the “effect on the secretion” value (IL-2) was “enhance” and the Stimulation index (T lymphocyte; dose 0.5 μg/kg) was 1.37 ± 0.10*^$. For the same molecule, the “NK activity index (%)” value (NK cell; dose 50 μg/kg) was 57.3 ± 17.9*^^$& %.

For “Pro Ser Ile Vat Gly Arg Pro Arg His Gln Gly Val Met (PSIVGRPRHQGVM; listed as Sus scrofa) [CMS015]”, the “activity of T lymphocyte … X ± SD (IU)” value (IL-2; [4]) was 85 ± 17*^ IU and the “effect on the secretion” value (IL-2) was “enhance”.

In the case of RVAPQQHPTL [CMS011], the “activity of T lymphocyte … X ± SD (IU)” value (IL-2; [3]) is reported as 101 ± 19*^@^ IU and the “effect on the secretion” value (IL-2) is reported as “enhance”.

With “Tyr Ser Leu (YSL; listed as Sus scrofa) [CMS024]” the Stimulation index (T lymphocyte; dose 0.5 μg/kg) was 1.46 ± 0.19*^$, the Stimulation index (T lymphocyte; dose 5 μg/kg) was 1.45 ± 0.21*^$ and the “NK activity index (%)” value (NK cell; dose 0.5 μg/kg) was 39.3 ± 18.7*^$ %. For the same molecule, the “NK activity index (%)” value (NK cell; dose 5 μg/kg) was 34.9 ± 12.1*^^$ % and the “NK activity index (%)” value (NK cell; dose 50 μg/kg) was 43.6 ± 13.9*^^$& %.

With “Tyr Ser Phe (YSF; listed as Sus scrofa) [CMS022]” the “activity of T lymphocyte … X ± SD (IU)” value (IL-2; [3]) was 109 ± 14*^@^ IU and the “effect on the secretion” value (IL-2) was “enhance”.

For VAPEEHPTLLTEAPLNPK [CMS010], the “activity of T lymphocyte … X ± SD (IU)” value (IL-2; [4]) was 125 ± 17*^@^ IU, the “activity of T lymphocyte … X ± SD (IU)” value (IL-2; [3]) was 66 ± 11 IU and the “effect on the secretion” value (IL-2) was “enhance”. The Stimulation index (T lymphocyte; dose 500 μg/kg) was 1.45 ± 0.21*^$.

In the case of VGMGQKDSY, the Stimulation index (T lymphocyte; dose 0.5 μg/kg) is reported as 1.50 ± 0.19*^$.

With VGMGQKDSYV [CMS020] the “activity of T lymphocyte … X ± SD (IU)” value (IL-2; [2]) was 63 ± 11 IU and the “effect on the secretion” value (IL-2) was “enhance”.

B1: IFN-γ: recombinant mouse IFN-γ (rmIFN-γ), Beijing Biotech Inc.; positive control (protein, UniProt P01580 23-155, looked up)
Interferon gamma: HGTVIESLESLNNYFNSSGIDVEEKSLFLDIWRNWQKDGDMKILQSQIISFYLRLFEVLKDNQAISNNISVIESHLITTFFSNSKAKKDAFMSIAKFEVNNPQVQRQAFNELIRVVHQLLPESSLRKRKRSRC
In the case of B1, the “activity of T lymphocyte … X ± SD (IU)” value (IL-2; [2]) is reported as 96 ± 14 IU, the “activity of T lymphocyte … X ± SD (IU)” value (IL-2; [1]) is reported as 99 ± 16 IU and the “activity of T lymphocyte … X ± SD (IU)” value (IL-2; [4]) is reported as 100 ± 18 IU. For the same molecule, the “activity of T lymphocyte … X ± SD (IU)” value (IL-2; [3]) was 87 ± 15 IU, the Stimulation index (T lymphocyte; controls: rhIL-2, rmIFN-γ 3 × 10^5 IU/kg, cyclophosphamide 20 mg/kg) was 1.27 ± 0.14 and the “NK activity index (%)” value (NK cell; controls: IL-2, IFN-γ 3 × 10^5 IU/kg, cyclophosphamide 20 mg/kg) was 20.9 ± 3.3%.
